Reference: ChEMBL document CHEMBL1144455, “A small molecule-kinase interaction map for clinical kinase inhibitors” (Nat Biotechnol, 2005)

Experiments:
[1] = biological target: Fibroblast growth factor receptor 1 (Homo sapiens, UniProt P11362)
[2] = biological target: High affinity nerve growth factor receptor (Homo sapiens, UniProt P04629)
Ephrin type-A receptor 7 = Ephrin type-A receptor 7 (Homo sapiens, UniProt Q15375)
[3] = biological target: Dual specificity protein kinase CLK3 (Homo sapiens, UniProt P49761)
[4] = biological target: T1, Membrane-associated tyrosine- and threonine-specific cdc2-inhibitory kinase (Homo sapiens, UniProt Q99640)
T1 sequence (Q99640 whole entry): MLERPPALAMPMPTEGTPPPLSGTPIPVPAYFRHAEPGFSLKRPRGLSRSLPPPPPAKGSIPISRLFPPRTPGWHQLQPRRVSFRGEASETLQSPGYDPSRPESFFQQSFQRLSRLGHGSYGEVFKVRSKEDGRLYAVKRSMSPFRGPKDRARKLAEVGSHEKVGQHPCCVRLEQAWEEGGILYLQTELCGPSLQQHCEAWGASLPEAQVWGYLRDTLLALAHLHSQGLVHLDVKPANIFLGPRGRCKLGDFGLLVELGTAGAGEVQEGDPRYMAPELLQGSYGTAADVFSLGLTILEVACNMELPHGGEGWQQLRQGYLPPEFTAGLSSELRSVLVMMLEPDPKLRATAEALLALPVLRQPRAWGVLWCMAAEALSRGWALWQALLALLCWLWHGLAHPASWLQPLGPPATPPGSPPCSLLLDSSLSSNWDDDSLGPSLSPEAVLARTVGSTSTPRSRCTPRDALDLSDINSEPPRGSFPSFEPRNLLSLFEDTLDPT

[5] = biological target: Mitogen-activated protein kinase 11 (Homo sapiens, UniProt Q15759)
[6] = biological target: T2, Serine/threonine-protein kinase PLK4 (Homo sapiens, UniProt O00444)
T2 sequence (O00444 whole entry): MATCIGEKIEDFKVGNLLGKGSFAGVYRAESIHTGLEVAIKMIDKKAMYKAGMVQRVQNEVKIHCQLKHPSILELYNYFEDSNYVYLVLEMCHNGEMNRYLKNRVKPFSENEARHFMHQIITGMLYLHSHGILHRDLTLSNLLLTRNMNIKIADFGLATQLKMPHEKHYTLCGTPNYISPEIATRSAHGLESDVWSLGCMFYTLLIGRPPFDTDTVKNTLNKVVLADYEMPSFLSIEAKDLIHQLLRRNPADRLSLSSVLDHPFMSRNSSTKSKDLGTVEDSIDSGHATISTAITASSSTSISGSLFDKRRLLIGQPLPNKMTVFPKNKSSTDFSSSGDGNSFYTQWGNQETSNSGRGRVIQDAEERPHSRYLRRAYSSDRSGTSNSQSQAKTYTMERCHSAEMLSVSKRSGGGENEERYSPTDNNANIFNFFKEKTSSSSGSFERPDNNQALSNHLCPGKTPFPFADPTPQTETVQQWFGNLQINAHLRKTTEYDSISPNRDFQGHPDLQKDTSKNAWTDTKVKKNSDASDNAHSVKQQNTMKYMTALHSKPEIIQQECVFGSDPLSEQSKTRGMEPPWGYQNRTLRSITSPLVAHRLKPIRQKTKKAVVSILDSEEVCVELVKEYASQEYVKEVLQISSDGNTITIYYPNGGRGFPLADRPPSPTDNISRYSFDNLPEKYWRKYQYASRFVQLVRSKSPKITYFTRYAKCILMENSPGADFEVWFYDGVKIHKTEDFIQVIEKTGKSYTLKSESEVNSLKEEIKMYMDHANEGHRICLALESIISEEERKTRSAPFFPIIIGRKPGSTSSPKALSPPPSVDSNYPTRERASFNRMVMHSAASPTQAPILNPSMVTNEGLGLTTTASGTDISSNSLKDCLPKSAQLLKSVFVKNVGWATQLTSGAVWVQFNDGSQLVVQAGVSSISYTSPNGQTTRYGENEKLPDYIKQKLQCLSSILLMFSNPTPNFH

[7] = biological target: Serine/threonine-protein kinase 16 (Homo sapiens, UniProt O75716)
[8] = biological target: Death-associated protein kinase 2 (Homo sapiens, UniProt Q9UIK4)
[9] = biological target: Ribosomal protein S6 kinase alpha-5 (Homo sapiens, UniProt O75582)
Focal adhesion kinase 1 = Focal adhesion kinase 1 (Homo sapiens, UniProt Q05397)
Aurora kinase A = biological target: T3, Aurora kinase A (Homo sapiens, UniProt O14965)
T3 sequence (O14965 whole entry): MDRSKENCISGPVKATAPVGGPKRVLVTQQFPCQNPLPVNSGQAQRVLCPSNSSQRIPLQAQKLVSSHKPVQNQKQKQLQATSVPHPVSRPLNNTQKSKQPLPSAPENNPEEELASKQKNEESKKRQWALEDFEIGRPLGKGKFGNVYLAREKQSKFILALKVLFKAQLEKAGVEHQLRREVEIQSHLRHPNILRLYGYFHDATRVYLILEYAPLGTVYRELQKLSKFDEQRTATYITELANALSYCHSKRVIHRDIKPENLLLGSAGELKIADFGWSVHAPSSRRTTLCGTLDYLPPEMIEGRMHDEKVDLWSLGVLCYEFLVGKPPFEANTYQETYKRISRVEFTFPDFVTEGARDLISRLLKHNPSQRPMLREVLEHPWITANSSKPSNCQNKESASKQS

Measured: Kd

Focal adhesion kinase 1, sequence (Q05397 whole entry): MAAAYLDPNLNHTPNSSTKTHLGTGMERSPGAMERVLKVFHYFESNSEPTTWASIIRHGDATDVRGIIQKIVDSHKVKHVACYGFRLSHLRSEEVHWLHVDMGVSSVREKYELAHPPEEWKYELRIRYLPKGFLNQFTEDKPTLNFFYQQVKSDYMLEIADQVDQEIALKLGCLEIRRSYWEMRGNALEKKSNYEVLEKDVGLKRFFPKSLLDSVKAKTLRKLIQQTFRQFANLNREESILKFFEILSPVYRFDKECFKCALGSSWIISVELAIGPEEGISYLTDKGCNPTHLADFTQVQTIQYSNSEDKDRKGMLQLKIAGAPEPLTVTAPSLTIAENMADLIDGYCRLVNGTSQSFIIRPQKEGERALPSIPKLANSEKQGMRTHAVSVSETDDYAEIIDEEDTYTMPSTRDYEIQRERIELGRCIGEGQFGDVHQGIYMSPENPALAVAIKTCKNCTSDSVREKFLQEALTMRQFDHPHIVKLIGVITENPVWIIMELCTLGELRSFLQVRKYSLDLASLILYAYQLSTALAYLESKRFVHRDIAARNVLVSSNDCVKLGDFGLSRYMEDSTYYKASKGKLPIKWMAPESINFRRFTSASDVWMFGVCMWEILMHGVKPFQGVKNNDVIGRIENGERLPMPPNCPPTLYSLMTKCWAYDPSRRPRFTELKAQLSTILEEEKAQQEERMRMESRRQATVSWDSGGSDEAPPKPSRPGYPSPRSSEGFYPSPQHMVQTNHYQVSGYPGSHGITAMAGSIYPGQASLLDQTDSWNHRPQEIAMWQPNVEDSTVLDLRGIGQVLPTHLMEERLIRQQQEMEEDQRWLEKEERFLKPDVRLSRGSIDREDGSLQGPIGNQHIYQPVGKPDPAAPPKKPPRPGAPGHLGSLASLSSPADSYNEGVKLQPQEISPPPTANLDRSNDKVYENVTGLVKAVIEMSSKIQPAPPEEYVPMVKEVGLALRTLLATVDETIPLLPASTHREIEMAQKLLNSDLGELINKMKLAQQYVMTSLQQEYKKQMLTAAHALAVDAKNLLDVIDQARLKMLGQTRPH
Death-associated protein kinase 2, sequence (Q9UIK4 whole entry): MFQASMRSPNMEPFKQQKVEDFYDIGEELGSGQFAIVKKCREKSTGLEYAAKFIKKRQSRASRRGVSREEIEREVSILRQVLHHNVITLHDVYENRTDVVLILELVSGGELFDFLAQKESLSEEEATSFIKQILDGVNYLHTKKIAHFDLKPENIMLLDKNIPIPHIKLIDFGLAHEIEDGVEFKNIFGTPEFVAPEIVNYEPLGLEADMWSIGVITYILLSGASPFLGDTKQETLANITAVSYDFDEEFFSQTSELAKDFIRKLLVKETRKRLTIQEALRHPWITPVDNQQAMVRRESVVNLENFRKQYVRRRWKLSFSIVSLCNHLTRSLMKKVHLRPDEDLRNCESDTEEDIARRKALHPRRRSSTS
Ribosomal protein S6 kinase alpha-5, sequence (O75582 whole entry): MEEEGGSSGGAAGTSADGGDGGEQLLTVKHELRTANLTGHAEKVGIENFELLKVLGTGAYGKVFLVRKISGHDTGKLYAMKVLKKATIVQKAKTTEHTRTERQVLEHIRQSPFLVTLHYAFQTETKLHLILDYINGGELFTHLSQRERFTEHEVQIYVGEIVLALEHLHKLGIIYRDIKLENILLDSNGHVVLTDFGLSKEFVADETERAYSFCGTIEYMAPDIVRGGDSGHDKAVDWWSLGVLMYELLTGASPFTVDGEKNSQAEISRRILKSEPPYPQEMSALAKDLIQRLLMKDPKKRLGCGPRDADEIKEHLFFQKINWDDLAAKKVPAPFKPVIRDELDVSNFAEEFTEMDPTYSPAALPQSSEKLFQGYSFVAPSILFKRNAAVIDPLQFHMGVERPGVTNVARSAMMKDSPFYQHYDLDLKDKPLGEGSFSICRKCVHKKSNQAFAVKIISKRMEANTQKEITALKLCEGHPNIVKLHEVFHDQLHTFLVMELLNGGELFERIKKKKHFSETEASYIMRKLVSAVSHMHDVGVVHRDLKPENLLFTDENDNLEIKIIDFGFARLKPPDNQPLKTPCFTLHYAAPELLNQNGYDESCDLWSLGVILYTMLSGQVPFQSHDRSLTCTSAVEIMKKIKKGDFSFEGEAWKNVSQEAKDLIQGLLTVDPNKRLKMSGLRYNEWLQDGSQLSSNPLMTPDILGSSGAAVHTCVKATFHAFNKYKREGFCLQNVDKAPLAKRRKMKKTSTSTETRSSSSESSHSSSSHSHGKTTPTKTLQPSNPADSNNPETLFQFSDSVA
Dual specificity protein kinase CLK3, sequence (P49761 whole entry): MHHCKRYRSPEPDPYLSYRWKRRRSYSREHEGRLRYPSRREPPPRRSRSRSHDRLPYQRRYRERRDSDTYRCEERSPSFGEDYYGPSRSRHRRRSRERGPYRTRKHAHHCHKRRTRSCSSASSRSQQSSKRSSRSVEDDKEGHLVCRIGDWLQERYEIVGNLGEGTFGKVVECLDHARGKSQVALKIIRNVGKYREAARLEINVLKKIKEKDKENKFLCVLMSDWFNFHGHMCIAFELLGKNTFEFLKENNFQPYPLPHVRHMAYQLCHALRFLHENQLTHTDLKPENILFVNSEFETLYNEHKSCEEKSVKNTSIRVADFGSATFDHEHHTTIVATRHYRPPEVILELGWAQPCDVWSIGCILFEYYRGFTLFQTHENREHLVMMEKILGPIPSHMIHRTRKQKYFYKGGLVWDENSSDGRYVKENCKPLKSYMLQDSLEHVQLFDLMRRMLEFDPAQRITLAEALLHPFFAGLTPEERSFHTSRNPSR
High affinity nerve growth factor receptor, sequence (P04629 whole entry): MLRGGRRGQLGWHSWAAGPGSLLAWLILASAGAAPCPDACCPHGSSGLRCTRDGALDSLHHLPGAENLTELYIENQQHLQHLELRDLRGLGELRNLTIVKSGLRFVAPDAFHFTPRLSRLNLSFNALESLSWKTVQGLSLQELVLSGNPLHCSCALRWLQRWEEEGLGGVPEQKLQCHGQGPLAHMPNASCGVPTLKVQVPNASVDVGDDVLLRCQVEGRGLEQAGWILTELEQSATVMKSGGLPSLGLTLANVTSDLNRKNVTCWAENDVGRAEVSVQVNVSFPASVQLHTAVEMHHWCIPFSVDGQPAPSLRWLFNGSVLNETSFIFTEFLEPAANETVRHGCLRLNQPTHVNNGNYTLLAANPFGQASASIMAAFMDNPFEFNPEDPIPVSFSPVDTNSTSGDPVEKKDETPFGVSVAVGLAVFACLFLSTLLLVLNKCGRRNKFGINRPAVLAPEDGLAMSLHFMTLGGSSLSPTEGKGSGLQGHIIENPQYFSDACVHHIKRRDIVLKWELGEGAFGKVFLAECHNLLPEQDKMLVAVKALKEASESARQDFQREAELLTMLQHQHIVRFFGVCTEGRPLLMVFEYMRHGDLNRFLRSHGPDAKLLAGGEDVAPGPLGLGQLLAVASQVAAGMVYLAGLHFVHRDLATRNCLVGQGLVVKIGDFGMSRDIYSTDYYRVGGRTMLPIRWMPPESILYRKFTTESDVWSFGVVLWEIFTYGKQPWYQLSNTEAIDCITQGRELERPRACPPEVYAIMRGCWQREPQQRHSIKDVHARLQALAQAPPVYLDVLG
Fibroblast growth factor receptor 1, sequence (P11362 whole entry): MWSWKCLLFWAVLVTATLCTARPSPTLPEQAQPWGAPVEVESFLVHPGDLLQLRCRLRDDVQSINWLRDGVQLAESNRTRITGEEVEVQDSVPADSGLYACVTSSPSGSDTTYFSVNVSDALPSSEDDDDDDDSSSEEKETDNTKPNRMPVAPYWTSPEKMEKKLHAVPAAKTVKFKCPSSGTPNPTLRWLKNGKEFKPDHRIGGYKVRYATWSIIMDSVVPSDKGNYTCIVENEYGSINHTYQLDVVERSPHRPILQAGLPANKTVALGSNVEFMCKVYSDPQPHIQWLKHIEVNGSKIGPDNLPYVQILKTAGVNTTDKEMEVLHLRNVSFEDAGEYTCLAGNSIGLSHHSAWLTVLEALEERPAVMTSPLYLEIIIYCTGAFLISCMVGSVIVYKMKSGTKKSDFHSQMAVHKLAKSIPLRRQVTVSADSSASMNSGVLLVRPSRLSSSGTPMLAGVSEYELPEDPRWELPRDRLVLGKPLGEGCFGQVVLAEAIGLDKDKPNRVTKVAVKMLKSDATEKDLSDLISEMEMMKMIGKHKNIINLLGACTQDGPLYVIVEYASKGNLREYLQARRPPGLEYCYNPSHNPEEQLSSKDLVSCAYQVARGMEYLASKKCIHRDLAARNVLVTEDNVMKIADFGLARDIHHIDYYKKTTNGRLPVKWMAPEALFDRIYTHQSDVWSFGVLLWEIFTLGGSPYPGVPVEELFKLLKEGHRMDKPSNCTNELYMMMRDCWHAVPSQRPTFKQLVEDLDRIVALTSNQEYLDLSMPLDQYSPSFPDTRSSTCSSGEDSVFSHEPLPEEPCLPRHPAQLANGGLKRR
Mitogen-activated protein kinase 11, sequence (Q15759 whole entry): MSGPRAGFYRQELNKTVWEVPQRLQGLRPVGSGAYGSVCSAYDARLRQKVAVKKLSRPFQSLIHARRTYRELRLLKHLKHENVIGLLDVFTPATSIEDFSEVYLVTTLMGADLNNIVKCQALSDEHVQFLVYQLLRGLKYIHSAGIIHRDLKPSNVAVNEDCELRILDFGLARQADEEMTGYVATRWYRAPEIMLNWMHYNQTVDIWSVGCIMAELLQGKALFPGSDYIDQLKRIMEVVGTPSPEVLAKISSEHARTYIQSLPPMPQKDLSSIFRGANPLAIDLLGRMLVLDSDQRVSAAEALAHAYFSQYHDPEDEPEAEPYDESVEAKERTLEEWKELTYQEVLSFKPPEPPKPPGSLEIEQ
Serine/threonine-protein kinase 16, sequence (O75716 whole entry): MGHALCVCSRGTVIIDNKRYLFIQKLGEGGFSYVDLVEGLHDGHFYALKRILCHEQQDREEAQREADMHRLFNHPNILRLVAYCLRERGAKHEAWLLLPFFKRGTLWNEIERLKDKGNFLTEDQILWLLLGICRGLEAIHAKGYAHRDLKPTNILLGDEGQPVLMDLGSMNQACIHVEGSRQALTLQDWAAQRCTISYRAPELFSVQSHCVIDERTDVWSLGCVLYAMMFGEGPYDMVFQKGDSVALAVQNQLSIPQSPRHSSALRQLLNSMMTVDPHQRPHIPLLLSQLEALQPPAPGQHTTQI

C#Cc1cccc(Nc2ncnc3cc(OCCOC)c(OCCOC)cc23)c1 [ERLOTINIB]
not listed: Aurora kinase A
Not Active: all other assays above

COc1cc2c(N3CCN(C(=O)Nc4ccc(OC(C)C)cc4)CC3)ncnc2cc1OCCCN1CCCCC1 [TANDUTINIB]
not listed: [2] | [3]
Not Active: all other assays above

O=c1ncn2nc(Sc3ccc(F)cc3F)ccc2c1-c1c(Cl)cccc1Cl [NEFLAMAPIMOD]
not listed: [5]
Not Active: all other assays above

C[S+]([O-])c1ccc(-c2nc(-c3ccc(F)cc3)c(-c3ccncc3)[nH]2)cc1 (configuration not stated) [SB-203580]
not listed: [5]
Not Active: all other assays above

Cc1ccc(NC(=O)c2ccc(CN3CCN(C)CC3)cc2)cc1Nc1nccc(-c2cccnc2)n1 [IMATINIB]
not listed: [3] | [6]
Not Active: all other assays above

CC[C@H](CO)Nc1nc(NCc2ccccc2)c2ncn(C(C)C)c2n1 [SELICICLIB]
Not Active: all assays above

Oc1ccc(-c2nc(-c3ccc(F)cc3)c(-c3ccncc3)[nH]2)cc1 [SB-202190]
not listed: [5]
Not Active: all other assays above

CCOc1cc2ncc(C#N)c(Nc3ccc(F)c(Cl)c3)c2cc1NC(=O)/C=C/CN(C)C [PELITINIB]
not listed: [3] | [4] | Focal adhesion kinase 1
Not Active: all other assays above

Oc1c2ccccc2c2c3c(cccc13)N=N2 [SP-600125]
Not Active: [1] | [2] | Ephrin type-A receptor 7 | [3] | [4] | [5] | Focal adhesion kinase 1
